For 4 compounds, EC50 results are on record in ChEMBL document CHEMBL1139559, “Radical scavenging activity of protein from tentacles of jellyfish Rhopilema esculentum” (Bioorg Med Chem Lett, 2005).

Assay [1] is described as follows: Effective concentration required for scavenging of superoxide anion radical generation from the tentical protein of jellyfish. It is filed as functional, Rhopilema esculentum.
Assay [2] can be described thus: Effective concentration required for scavenging of hydroxyl radical generation from the tentical protein of jellyfish. It is filed as functional, Rhopilema esculentum.

≈ marks a conversion by molar mass, not a printed value.

By EC50 is commonly meant the midpoint of the concentration-response curve. The compound `COc1ccc(O)c(C(C)(C)C)c1.COc1ccc(O)cc1C(C)(C)C` [BUTYLATED HYDROXYANISOLE] yielded an EC50 in assay [1] of 31 µg/mL.
For the compound `OC[C@@H](O)[C@@H](O)[C@H](O)[C@H](O)CO` [MANNITOL], in assay [2], the EC50 was 4536 µg/mL (≈ 24900 µM).
In turn, `Cc1cc(C(C)(C)C)c(O)c(C(C)(C)C)c1` [BUTYLATED HYDROXYTOLUENE] had a half-maximal effective concentration (EC50) in assay [1] of 61 µg/mL (≈ 277 µM).
With `Cc1c(C)c2c(c(C)c1O)CC[C@@](C)(CCC[C@H](C)CCC[C@H](C)CCCC(C)C)O2` [ALPHA-TOCOPHEROL], in assay [1], the 50% effective concentration (EC50) turned out to be 88 µg/mL (≈ 204 µM).
